Assay results taken from article PMC5218480 (PLoS ONE, 2017).

Tested on: MV-4-11 cells
Assay: Gene expression microarray analysis (Affymetrix PrimeView) and GSEA
Format: cell-based, human
Parameters: RFU PODN (11730768_x_at) / Fold change /veh PODN (11730768_x_at) / RFU LINC00158 (11744669_a_at) / Fold change /veh LINC00158 (11744669_a_at) / RFU DUSP10 (11751237_a_at) / Fold change /veh DUSP10 (11751237_a_at) / RFU ID3 (11757404_x_at) / Fold change /veh ID3 (11757404_x_at) / RFU PLEKHG5 (11737974_s_at) / Fold change /veh PLEKHG5 (11737974_s_at) / RFU LRRC4B (11730491_at) / Fold change /veh LRRC4B (11730491_at) / RFU GIMAP4 (11747438_a_at) / Fold change /veh GIMAP4 (11747438_a_at) / RFU KRT8 (11758183_x_at) / Fold change /veh KRT8 (11758183_x_at) / RFU CNN1 (11734310_a_at) / Fold change /veh CNN1 (11734310_a_at) / RFU VPS37D (11726825_at) / Fold change /veh VPS37D (11726825_at) / RFU C10orf10 (11716522_x_at) / Fold change /veh C10orf10 (11716522_x_at) / RFU KIR2DL2 /// KIR2DL4 /// KIR2DL5A /// KIR2DL5B /// KIR2DS1 /// KIR2DS2 /// KIR2DS3 /// KIR2DS4 /// KIR3DL3 /// KIR3DL3 /// KIR3DS1 (11738374_at) / Fold change /veh KIR2DL2 /// KIR2DL4 /// KIR2DL5A /// KIR2DL5B /// KIR2DS1 /// KIR2DS2 /// KIR2DS3 /// KIR2DS4 /// KIR3DL3 /// KIR3DL3 /// KIR3DS1 (11738374_at) / RFU C1QL1 (11718748_at) / Fold change /veh C1QL1 (11718748_at) / RFU TMPRSS4 (11747572_a_at) / Fold change /veh TMPRSS4 (11747572_a_at) / RFU HAMP (11756126_x_at) / Fold change /veh HAMP (11756126_x_at) / RFU RNFT2 (11725882_a_at) / Fold change /veh RNFT2 (11725882_a_at) / RFU NR4A2 (11747474_a_at) / Fold change /veh NR4A2 (11747474_a_at) / RFU ABCC12 (11746883_a_at) / Fold change /veh ABCC12 (11746883_a_at) / RFU TMEM136 (11760407_x_at) / Fold change /veh TMEM136 (11760407_x_at) / RFU CLDN22 /// WWC2 (11732394_at) / Fold change /veh CLDN22 /// WWC2 (11732394_at) / RFU HLA-DPB1 (11760878_x_at) / Fold change /veh HLA-DPB1 (11760878_x_at) / RFU SPINT1 (11716480_a_at) / Fold change /veh SPINT1 (11716480_a_at) / RFU GAP43 (11754022_s_at) / Fold change /veh GAP43 (11754022_s_at) / RFU A4GNT (11735810_at) / Fold change /veh A4GNT (11735810_at) / RFU PRB3 (11715151_x_at) / Fold change /veh PRB3 (11715151_x_at) / RFU TUBB4B (11761932_at) / Fold change /veh TUBB4B (11761932_at) / RFU CAPN14 (11732068_a_at) / Fold change /veh CAPN14 (11732068_a_at) / RFU TMCC2 (11721928_a_at) / Fold change /veh TMCC2 (11721928_a_at) / RFU IRGQ (11745062_a_at) / Fold change /veh IRGQ (11745062_a_at) / RFU FAM174B (11720279_a_at) / Fold change /veh FAM174B (11720279_a_at) / RFU TMPRSS4 (11748680_a_at) / Fold change /veh TMPRSS4 (11748680_a_at) / RFU FAM212B (11763350_a_at) / Fold change /veh FAM212B (11763350_a_at) / RFU PLEKHG5 (11743358_a_at) / Fold change /veh PLEKHG5 (11743358_a_at) / RFU ZSCAN30 (11745921_a_at) / Fold change /veh ZSCAN30 (11745921_a_at) / RFU CMKLR1 (11741424_a_at) / Fold change /veh CMKLR1 (11741424_a_at) / RFU LOC101060620 /// MAPK8IP1 (11723275_at) / Fold change /veh LOC101060620 /// MAPK8IP1 (11723275_at) / RFU SPTSSB (11747773_x_at) / Fold change /veh SPTSSB (11747773_x_at) / RFU PRSS12 (11739890_at) / Fold change /veh PRSS12 (11739890_at) / RFU BIN1 (11741810_x_at) / Fold change /veh BIN1 (11741810_x_at) / RFU WNT11 (11732464_a_at) / Fold change /veh WNT11 (11732464_a_at) / RFU C10orf10 (11716521_a_at) / Fold change /veh C10orf10 (11716521_a_at) / RFU C5orf56 (11738089_at) / Fold change /veh C5orf56 (11738089_at) / RFU CYB561 (11721691_x_at) / Fold change /veh CYB561 (11721691_x_at) / RFU ANKRD19P (11752326_a_at) / Fold change /veh ANKRD19P (11752326_a_at) / RFU OR2T12 /// OR2T33 /// OR2T8 (11738714_s_at) / Fold change /veh OR2T12 /// OR2T33 /// OR2T8 (11738714_s_at) / RFU VCAN (11748164_a_at) / Fold change /veh VCAN (11748164_a_at) / RFU JSRP1 (11732532_at) / Fold change /veh JSRP1 (11732532_at) / RFU KRTAP10-11 (11738290_x_at) / Fold change /veh KRTAP10-11 (11738290_x_at) / RFU MYO3A (11730013_a_at) / Fold change /veh MYO3A (11730013_a_at) / RFU EBF3 (11725865_a_at) / Fold change /veh EBF3 (11725865_a_at) / RFU CAMK2N1 (11719241_x_at) / Fold change /veh CAMK2N1 (11719241_x_at) / RFU C5orf56 (11738088_a_at) / Fold change /veh C5orf56 (11738088_a_at) / RFU OLFML3 (11715873_a_at) / Fold change /veh OLFML3 (11715873_a_at) / RFU LOC100653217 /// NTM (11731650_a_at) / Fold change /veh LOC100653217 /// NTM (11731650_a_at) / RFU MAPK11 (11762145_a_at) / Fold change /veh MAPK11 (11762145_a_at) / RFU FIZ1 (11724087_x_at) / Fold change /veh FIZ1 (11724087_x_at) / RFU OASL (11726364_x_at) / Fold change /veh OASL (11726364_x_at) / RFU SOX15 (11748057_x_at) / Fold change /veh SOX15 (11748057_x_at) / RFU CD79A (11719716_a_at) / Fold change /veh CD79A (11719716_a_at) / RFU HIST1H1D (11736915_at) / Fold change /veh HIST1H1D (11736915_at) / RFU CASKIN2 (11723855_a_at) / Fold change /veh CASKIN2 (11723855_a_at) / RFU LOC730098 (11760151_x_at) / Fold change /veh LOC730098 (11760151_x_at) / RFU OR4N2 (11742367_at) / Fold change /veh OR4N2 (11742367_at) / RFU PRRT2 (11749266_a_at) / Fold change /veh PRRT2 (11749266_a_at) / RFU SNX32 (11753110_a_at) / Fold change /veh SNX32 (11753110_a_at) / RFU CDHR5 (11726645_a_at) / Fold change /veh CDHR5 (11726645_a_at) / RFU RCAN1 (11760418_a_at) / Fold change /veh RCAN1 (11760418_a_at) / RFU FAM167A (11723789_a_at) / Fold change /veh FAM167A (11723789_a_at) / RFU FAM26E (11764081_at) / Fold change /veh FAM26E (11764081_at) / RFU ISYNA1 (11749810_s_at) / Fold change /veh ISYNA1 (11749810_s_at) / RFU ACY1 (11761880_at) / Fold change /veh ACY1 (11761880_at) / RFU 11764098_at / Fold change /veh 11764098_at / RFU SAMD14 (11745864_x_at) / Fold change /veh SAMD14 (11745864_x_at) / RFU NPB (11741838_a_at) / Fold change /veh NPB (11741838_a_at) / RFU TMPRSS6 (11731388_a_at) / Fold change /veh TMPRSS6 (11731388_a_at) / RFU KRTAP10-2 (11738614_at) / Fold change /veh KRTAP10-2 (11738614_at) / RFU ARHGAP8 /// PRR5-ARHGAP8 (11727945_x_at) / Fold change /veh ARHGAP8 /// PRR5-ARHGAP8 (11727945_x_at) / RFU KRTAP5-7 /// NADSYN1 (11734609_at) / Fold change /veh KRTAP5-7 /// NADSYN1 (11734609_at) / RFU RASL12 (11751679_a_at) / Fold change /veh RASL12 (11751679_a_at) / RFU CDKN2B (11736163_a_at) / Fold change /veh CDKN2B (11736163_a_at) / RFU PRF1 (11729649_at) / Fold change /veh PRF1 (11729649_at) / RFU, ZNF638 /// ZNF638-IT1 / Fold change vs veh, ZNF638 /// ZNF638-IT1 / RFU, PANK3 / Fold change vs veh, PANK3 / RFU, SH3YL1 / Fold change vs veh, SH3YL1 / RFU, ZEB2 / Fold change vs veh, ZEB2 / RFU, NRIP1 / Fold change vs veh, NRIP1 / RFU, PTTG1IP / Fold change vs veh, PTTG1IP / RFU, CAPN2 / Fold change vs veh, CAPN2 / RFU, MED14 / Fold change vs veh, MED14 / RFU, SNORA58 / Fold change vs veh, SNORA58 / RFU, C1orf63 / Fold change vs veh, C1orf63 / RFU, LRRFIP1 / Fold change vs veh, LRRFIP1 / RFU, NDUFAF7 / Fold change vs veh, NDUFAF7 / RFU, SLC12A2 / Fold change vs veh, SLC12A2 / RFU, IBTK / Fold change vs veh, IBTK / RFU, ESF1 / Fold change vs veh, ESF1 / Fold change vs veh, TMEM50B / RFU, TAOK1 / Fold change vs veh, TAOK1 / RFU, ACBD3 / Fold change vs veh, ACBD3 / RFU, TMA16 / Fold change vs veh, TMA16 / RFU, RWDD3 / Fold change vs veh, RWDD3 / RFU, BCAT1 / Fold change vs veh, BCAT1 / RFU, EDEM3 / Fold change vs veh, EDEM3 / RFU, TMEM33 / Fold change vs veh, TMEM33 / RFU, WDR75 / Fold change vs veh, WDR75 / RFU, AHCTF1 / Fold change vs veh, AHCTF1 / RFU, TFRC / Fold change vs veh, TFRC / RFU, ZDHHC17 / Fold change vs veh, ZDHHC17 / RFU, NOM1 / Fold change vs veh, NOM1 / RFU, ARL8B / Fold change vs veh, ARL8B / RFU, ZBTB11 / Fold change vs veh, ZBTB11 / RFU, TAMM41 / Fold change vs veh, TAMM41 / RFU, KIAA1704 /// LOC100996395 / Fold change vs veh, KIAA1704 /// LOC100996395 / RFU, ING1 / Fold change vs veh, ING1 / RFU, TRMT61B / Fold change vs veh, TRMT61B / RFU, FUBP3 / Fold change vs veh, FUBP3 / RFU, TP53 / Fold change vs veh, TP53 / RFU, TNKS2 / Fold change vs veh, TNKS2 / RFU, ZFP14 / Fold change vs veh, ZFP14 / RFU, ACTR2 / Fold change vs veh, ACTR2 / RFU, PPP3R1 / Fold change vs veh, PPP3R1 / RFU, PIK3R1 / Fold change vs veh, PIK3R1 / RFU, HNRNPA1 / Fold change vs veh, HNRNPA1 / RFU, RNF170 / Fold change vs veh, RNF170 / RFU, ZNF28 / Fold change vs veh, ZNF28 / RFU, RNGTT / Fold change vs veh, RNGTT / RFU, OGT / Fold change vs veh, OGT / RFU, BRD1 / Fold change vs veh, BRD1 / RFU, MARS / Fold change vs veh, MARS / RFU, ZNF655 / Fold change vs veh, ZNF655 / RFU, FAHD1 / Fold change vs veh, FAHD1 / RFU, BDP1 / Fold change vs veh, BDP1 / RFU, LRRCC1 / Fold change vs veh, LRRCC1 / RFU, ARID1A / Fold change vs veh, ARID1A / RFU, ZNF146 / Fold change vs veh, ZNF146 / RFU, ZNF330 / Fold change vs veh, ZNF330 / RFU, GPN3 / Fold change vs veh, GPN3 / RFU, C9orf123 / Fold change vs veh, C9orf123 / RFU, N4BP2L2 / Fold change vs veh, N4BP2L2 / RFU, ARFIP1 / Fold change vs veh, ARFIP1 / RFU, FAM179B / Fold change vs veh, FAM179B / RFU, BCL10 / Fold change vs veh, BCL10 / RFU, UHRF1BP1L / Fold change vs veh, UHRF1BP1L / RFU, BET1 / Fold change vs veh, BET1 / RFU, CNOT2 / Fold change vs veh, CNOT2 / RFU, ZNF268 / Fold change vs veh, ZNF268 / Fold change vs veh, ZNF507 / RFU, DGCR2 / Fold change vs veh, DGCR2 / RFU, WDSUB1 / Fold change vs veh, WDSUB1 / Fold change vs veh, HSP90B1 /// MIR3652 / RFU, ADSS / Fold change vs veh, ADSS / RFU, GK / Fold change vs veh, GK / RFU, ZNF148 / Fold change vs veh, ZNF148 / RFU, TAF9 / Fold change vs veh, TAF9 / RFU, SLC1A5 / Fold change vs veh, SLC1A5 / RFU, SLMO2 / Fold change vs veh, SLMO2 / RFU, ABCC4 / Fold change vs veh, ABCC4 / RFU, LOC101060439 /// RAP1B / Fold change vs veh, LOC101060439 /// RAP1B / RFU, RFX7 / Fold change vs veh, RFX7 / RFU, GTPBP10 / Fold change vs veh, GTPBP10 / RFU, CNEP1R1 / Fold change vs veh, CNEP1R1 / RFU, BIVM-ERCC5 /// ERCC5 / Fold change vs veh, BIVM-ERCC5 /// ERCC5 / RFU, ILF3 / Fold change vs veh, ILF3 / RFU 11762660_at / Fold change /veh 11762660_at / RFU VCAN (11757783_s_at) / Fold change /veh VCAN (11757783_s_at) / RFU DDX43 (11728927_at) / Fold change /veh DDX43 (11728927_at) / RFU KRT8 (11758188_x_at) / Fold change /veh KRT8 (11758188_x_at) / RFU NKD1 (11759106_at) / Fold change /veh NKD1 (11759106_at) / RFU SRD5A1 (11742802_a_at) / Fold change /veh SRD5A1 (11742802_a_at) / RFU TPSAB1 /// TPSB2 (11721975_s_at) / Fold change /veh TPSAB1 /// TPSB2 (11721975_s_at) / RFU GSTM3 (11746129_a_at) / Fold change /veh GSTM3 (11746129_a_at) / RFU IL23R (11737362_x_at) / Fold change /veh IL23R (11737362_x_at) / RFU TMEM51 (11727254_a_at) / Fold change /veh TMEM51 (11727254_a_at) / RFU PIWIL2 (11732686_x_at) / Fold change /veh PIWIL2 (11732686_x_at) / RFU ORM1 (11744905_x_at) / Fold change /veh ORM1 (11744905_x_at) / RFU CCDC152 (11743942_at) / Fold change /veh CCDC152 (11743942_at) / RFU ECM1 (11717891_a_at) / Fold change /veh ECM1 (11717891_a_at) / RFU IL23R (11748794_a_at) / Fold change /veh IL23R (11748794_a_at) / RFU TNFAIP8L3 (11732012_x_at) / Fold change /veh TNFAIP8L3 (11732012_x_at) / RFU MBOAT4 (11741988_at) / Fold change /veh MBOAT4 (11741988_at) / RFU 11764193_at / Fold change /veh 11764193_at / RFU TMEM53 (11763286_at) / Fold change /veh TMEM53 (11763286_at) / RFU MAGEB2 (11727129_at) / Fold change /veh MAGEB2 (11727129_at) / RFU TMEM200A (11744735_a_at) / Fold change /veh TMEM200A (11744735_a_at) / RFU CCDC152 (11751479_a_at) / Fold change /veh CCDC152 (11751479_a_at) / RFU FAM211A (11726209_a_at) / Fold change /veh FAM211A (11726209_a_at) / RFU RGS16 (11746705_a_at) / Fold change /veh RGS16 (11746705_a_at) / RFU VCAN (11755009_s_at) / Fold change /veh VCAN (11755009_s_at) / RFU RHOB (11743442_s_at) / Fold change /veh RHOB (11743442_s_at) / RFU RGS16 (11720943_a_at) / Fold change /veh RGS16 (11720943_a_at) / RFU RGS16 (11720944_at) / Fold change /veh RGS16 (11720944_at) / RFU, VPS4B / Fold change vs veh, VPS4B / RFU, CREB1 / Fold change vs veh, CREB1 / RFU, DNAJC13 / Fold change vs veh, DNAJC13 / RFU, GNAQ / Fold change vs veh, GNAQ / RFU, CDK5R1 / Fold change vs veh, CDK5R1 / RFU, ZRANB3 / Fold change vs veh, ZRANB3 / RFU, CUL4A / Fold change vs veh, CUL4A / RFU, CCNY / Fold change vs veh, CCNY / RFU, UFL1 / Fold change vs veh, UFL1 / RFU, COG3 / Fold change vs veh, COG3 / RFU, DIAPH2 / Fold change vs veh, DIAPH2 / RFU, SKA2 / Fold change vs veh, SKA2 / RFU, AFF3 / Fold change vs veh, AFF3 / RFU, LMF1 / Fold change vs veh, LMF1 / RFU, IPO11 / Fold change vs veh, IPO11 / RFU, DFFB / Fold change vs veh, DFFB / RFU, FOXP1 / Fold change vs veh, FOXP1 / RFU, CARD8 / Fold change vs veh, CARD8 / RFU, STRN3 / Fold change vs veh, STRN3 / RFU, ADK / Fold change vs veh, ADK / RFU, RASSF2 / Fold change vs veh, RASSF2 / RFU, WIPF1 / Fold change vs veh, WIPF1 / RFU, LARP1B / Fold change vs veh, LARP1B / RFU, RASA1 / Fold change vs veh, RASA1 / RFU, RB1 / Fold change vs veh, RB1 / RFU, PPFIA1 / Fold change vs veh, PPFIA1 / RFU, MAT2A / Fold change vs veh, MAT2A / RFU, CCT5 / Fold change vs veh, CCT5 / RFU, WDR92 / Fold change vs veh, WDR92 / RFU, CUX1 / Fold change vs veh, CUX1 / RFU, TTC7A / Fold change vs veh, TTC7A / RFU, TMEM135 / Fold change vs veh, TMEM135 / RFU, DEPTOR / Fold change vs veh, DEPTOR / RFU, CPM / Fold change vs veh, CPM / RFU, DNAJB6 / Fold change vs veh, DNAJB6 / RFU, CACNA2D3 / Fold change vs veh, CACNA2D3 / RFU, DTX4 / Fold change vs veh, DTX4 / RFU, TFCP2 / Fold change vs veh, TFCP2 / RFU, GMCL1 /// GMCL1P1 / Fold change vs veh, GMCL1 /// GMCL1P1 / RFU, AEBP2 / Fold change vs veh, AEBP2 / RFU, SNHG1 /// SNORD22 /// SNORD25 /// SNORD26 /// SNORD27 /// SNORD28 /// SNORD29 /// SNORD31 / Fold change vs veh, SNHG1 /// SNORD22 /// SNORD25 /// SNORD26 /// SNORD27 /// SNORD28 /// SNORD29 /// SNORD31 / Fold change (Aza/veh), C12orf56 (ProbeSet 11735607_a_at) / Fold change (ACY-1035/veh), C12orf56 (ProbeSet 11735607_a_at) / Fold change (Aza/veh), FGFR1OP (ProbeSet 11751329_s_at) / Fold change (ACY-1035/veh), FGFR1OP (ProbeSet 11751329_s_at) / Fold change (Aza/veh), VPS36 (ProbeSet 11739960_a_at) / Fold change (ACY-1035/veh), VPS36 (ProbeSet 11739960_a_at) / RFU SYPL1 (11715823_x_at) / Fold change /veh SYPL1 (11715823_x_at) / RFU IGFBP7 (11715501_s_at) / Fold change /veh IGFBP7 (11715501_s_at) / RFU REEP3 (11722064_at) / Fold change /veh REEP3 (11722064_at) / RFU IGLL1 (11728026_x_at) / Fold change /veh IGLL1 (11728026_x_at): dose or concentration left out as unconfirmed
Details: ProbeSet 11725141_a_at; LIST B

## Nc1ccc(-c2cccs2)cc1NC(=O)c1ccc2c(c1)cc(C1CC1)n2CCN1CCOCC1 [ACY-1035]
  RFU, FUBP3: 490.19 RFU
